tested on: influenza A virus (IAV) A/Aichi/2/68 (H3N2); assay: microbe, parasite or virus in culture; format: cell-based, influenza A virus in MDCK cells; conditions: not given

Structure (SMILES)	CPE (result in words)
COC(=O)[C@H]1CC[C@H](NC(=O)[C@H](NC(=O)c2c[nH]c3ncc(C4CC4)nc23)C2CCCCC2)CC1	Active

same assay, conditions: Influenza A virus, H3N2, MDCK, 48 h, read-out: CPE IC50

Structure (SMILES)	IC50 [µM]
COc1ccc(C(C#N)NC(=O)[C@H](NC(=O)c2c[nH]c3ncc(C4CC4)nc23)C2CC2)cc1 (some centres unmarked)	4.9
COc1ccc(NC(=O)[C@H](NC(=O)c2c[nH]c3ncc(C4CC4)nc23)C2CC2)cc1	> 100
O=C(N[C@@H](C(=O)N1CCC[C@@H](C(=O)N2CCOCC2)C1)C1CC1)c1c[nH]c2ncc(C3CC3)nc12	> 100
O=C(N[C@@H](C(=O)NCCC(=O)N1CCCC1)C1CC1)c1c[nH]c2ncc(C3CC3)nc12	> 100
CC(C)C[C@@H](NC(=O)c1c[nH]c2ncc(C3CC3)nc12)C(=O)NCCC(=O)NCc1ccccc1	> 100
O=C(N[C@@H](C(=O)N1CCC[C@H](C(=O)N2CCCCC2)C1)C1CC1)c1c[nH]c2ncc(C3CC3)nc12	33.1
O=C(N[C@@H](C(=O)N1CCC[C@@H](C(=O)N2CCCCC2)C1)C1CC1)c1c[nH]c2ncc(C3CC3)nc12	> 100
CC1(CNC(=O)c2c[nH]c3ncc(-c4ccccc4Cl)nc23)CCC(=O)N1 (centres unmarked)	> 100
O=C(N[C@@H](C(=O)N1CCC2(CCN(Cc3ccccc3)C2=O)C1)C1CC1)c1c[nH]c2ncc(C3CC3)nc12 (some centres unmarked)	27
O=C(N[C@@H](C(=O)NCC(=O)N1CCS(=O)(=O)CC1)C1CC1)c1c[nH]c2ncc(C3CC3)nc12	> 100
CC(C)C[C@@H](NC(=O)c1c[nH]c2ncc(C3CC3)nc12)C(=O)N1CC2(CNC2)C1	> 100
O=C(N[C@@H](C(=O)NCc1ccccc1)C1CC1)c1c[nH]c2ncc(C3CC3)nc12	18.2
COCCN(CCOC)C(=O)c1c[nH]c2ncc(C(C)C)nc12	> 100
CC(C)c1cnc2[nH]cc(C(=O)NCC(F)(F)F)c2n1	> 50
CCCNC(=O)c1c[nH]c2ncc(C(C)C)nc12	18.1
CN1CCN(C(=O)CCNC(=O)[C@H](NC(=O)c2c[nH]c3ncc(C4CC4)nc23)C2CC2)CC1	> 100
O=C(N[C@@H](C(=O)NCCC(=O)N1CCS(=O)(=O)CC1)C1CC1)c1c[nH]c2ncc(C3CC3)nc12	> 100
O=C(N[C@@H](C(=O)N1CCc2ccccc2C1)C1CC1)c1c[nH]c2ncc(C3CC3)nc12	> 100
O=C(N[C@@H](C(=O)NCCC(=O)N1CCCCC1)C1CC1)c1c[nH]c2ncc(C3CC3)nc12	> 100
O=C(N[C@@H](C(=O)NCc1cccc(F)c1)C1CC1)c1c[nH]c2ncc(C3CC3)nc12	9.2
CC(C)C[C@@H](NC(=O)c1c[nH]c2ncc(C3CC3)nc12)C(=O)NCC(=O)NCc1ccccn1	> 100
O=C(N[C@@H](C(=O)N1CCOCC1)C1CC1)c1c[nH]c2ncc(C3CC3)nc12	> 100
O=C(N[C@@H](C(=O)N1CCC[C@@H](C(=O)N2CCCC2)C1)C1CC1)c1c[nH]c2ncc(C3CC3)nc12	> 100
O=C(N[C@@H](C(=O)NCCC(=O)N1CCOCC1)C1CC1)c1c[nH]c2ncc(C3CC3)nc12	> 100
CC(C)C[C@@H](NC(=O)c1c[nH]c2ncc(C3CC3)nc12)C(=O)NC1CCCc2ccccc21 (some centres unmarked)	> 100
O=C(N[C@@H](C(=O)N1CCCC1)C1CC1)c1c[nH]c2ncc(C3CC3)nc12	> 25
O=C(N[C@H](C(=O)N1CCCC1)C1CC1)c1c[nH]c2ncc(C3CC3)nc12	> 25
CC(C)C[C@@H](NC(=O)c1c[nH]c2ncc(C3CC3)nc12)C(=O)NCCC(=O)Nc1ccccc1	> 100

same assay, conditions: Influenza A virus, H3N2, read-out: % CPE reduction

Structure (SMILES)	inhibition at 50 µM [%]	inhibition at 5 µM [%]
CC(C)C[C@@H](NC(=O)c1c[nH]c2ncc(C3CC3)nc12)C(=O)NCC(=O)Nc1ccccc1	25	
O=C(N[C@@H](C(=O)N1CCC(CO)C1)C1CCCCC1)c1c[nH]c2ncc(C3CC3)nc12 (some centres unmarked)	-10.1	
CC(C)C(NC(=O)c1c[nH]c2ncc(C3CC3)nc12)C(N)=O (centres unmarked)		-10.7
O=C(N[C@@H](C(=O)N1CCC(C(=O)O)C1)C1CCCCC1)c1c[nH]c2ncc(C3CC3)nc12 (some centres unmarked)		11.6
O=C(N[C@@H](C(=O)NCc1cccnc1)C1CC1)c1c[nH]c2ncc(C3CC3)nc12	6.6	
O=C(N[C@@H](C(=O)N1CC[C@@H](O)C1)C1CCCCC1)c1c[nH]c2ncc(C3CC3)nc12	-14.8	
